Test results: patent publication US4336243A, “Transdermal nitroglycerin pad” (G. D. Searle & Co., priority 1981, dated 1982)

Legend:
[1] = Effect of added hydrophobic solvents on nitroglycerin transport and delivery; settings: miglyol oil 812 and isopropyl palmitate alone, or with mineral oil, added to the hydrophilic solvent system in the polymer matrix
[2] = Percutaneous absorption of C^14 nitroglycerin, neat liquid application (urinary radioactivity); assay type: in vivo, rhesus monkey (Macaca mulata); settings: for Percent Dose Absorbed (Mean + SEM): neat liquid
Procedure: Studies to determine the topical availability of nitroglycerin were carried out in vivo with the rhesus monkey (Macaca mulata).
The animals were placed in metabolism chairs for the length of time of the dose application. Urine was collected while the animals were still in the metabolism chairs. After the dose was removed, the animals were moved to a metabolism cage for continued urine collection.
Nitroglycerin, labeled with carbon-14, was applied to the skin. The site of application can be any part of the body; however, the ventral forearm or upper part of the inner arm was used for convenience. The area of application is generally small, i.e., 2-10 cm^2; however, any area can be used. The final concentration is expressed as an amount per unit area of skin (i.e. 1.0 mg/1 cm^2).
In the case of liquid, cream or ointment formulations, the dose was spread over the exact skin area. In the case of the pads of the present invention, they were taped to the skin. In the case of liquids, cream or ointments, the treated area was covered with aluminum foil and tape. In all cases, the tape and foil and where applicable the nitroglycerin pads were removed after 24 hours and the site of application was wiped three times with gauze soaked with ethanol, then washed with soap and water.
Absorption is quantified on the basis of the percent of radioactivity excreted in urine for 3 days following application of a known amount of the labeled nitroglycerin to the skin. Daily urinary excretion values are collected for excretion of radioactivity by other routes and retention of radioactivity in the body by the administration of an intravenous dose of C^14 -labeled nitroglycerin according to the following formula: [formula]
In the case of C^14 -labeled nitroglycerin applied via the nitroglycerin pad of the present invention, the device can be removed from the skin and analyzed for residual radioactivity. The amount of radioactivity which has been removed from the device, by comparative assays with devices not applid to skin, is considered to have been released in vivo during the time of skin application. Analysis for radioactivity can be conducted using any commercially available liquid scintillation counter. To determine the amount of radioactivity in this study, 1.0 ml of radioactive urine was mixed with scintillation fluid (10 ml of PCS solubilizer, Amersham Corporation, Arlington Heights, Ill.). The urine mixed with scintillant is counted for radioactivity in a liquid scintillation counter and the amount of radioactivity determined.

For O=[N+]([O-])OCC(CO[N+](=O)[O-])O[N+](=O)[O-] [C^14 Nitroglycerin, nitroglycerin], the drug delivery [1] was “increased”, the drug transport [1] was “greatly enhanced” and the “Percent Dose Absorbed (Mean + SEM)” value ([2]; topical concentration 0.01 mg/cm^2, 24 hours) was 41.8 ± 3.2%. For the same molecule, the “Percent Dose Absorbed (Mean + SEM)” value ([2]; topical concentration 0.1 mg/cm^2, 24 hours) was 43.5 ± 3.3%, the “Percent Dose Absorbed (Mean + SEM)” value ([2]; topical concentration 1.0 mg/cm^2, 24 hours) was 36.6 ± 3.7% and the “Percent Dose Absorbed (Mean + SEM)” value ([2]; topical concentration 7.0 mg/cm^2, 24 hours) was 22.6 ± 4.2%. The “Percent Dose Absorbed (Mean + SEM)” value ([2]; topical concentration 10.0 mg/cm^2, 24 hours) was 7.8 ± 0.7%, the absorption ([2]; topical concentrations of 7 and 10 mg/cm^2) was “decreased absorption” and the “maximum optimum dosage for good bioavailability” value ([2]; topical, neat nitroglycerin) was 5 mg/cm^2.
